# Results published in ChEMBL document CHEMBL1156829 (Proc Natl Acad Sci U S A, 2008).
# Peptide text beside a SMILES is read from it. * marks the point of attachment. Boc = CC(C)(C)OC(=O)*; OBn = c1ccc(CO*)cc1
# Assays:
# [1] = test system: Plasmodium falciparum; assay: NOVARTIS: Inhibition of Plasmodium falciparum 3D7 (drug-susceptible) proliferation in erythrocyte-based infection assay; assay type: functional, organism-based; conditions: Plasmodium falciparum, 3D7
# [2] = NOVARTIS: Cytotoxicity against human hepatocellular carcinoma cell line (Huh7); assay type: toxicity, cell-based, Huh-7; conditions: Huh7 cells (hepatocellular carcinoma cell line)
# [3] = test system: Plasmodium falciparum; assay: NOVARTIS: Inhibition of Plasmodium falciparum W2 (drug-resistant) proliferation in erythrocyte-based infection assay; assay type: functional, organism-based
# [4] = Plasmodium falciparum, W2, read-out: EC50
SMILES,EC50 [1] [µM],CC50 [2] [µM],"EC50 [3, 4] [µM]",EC50 [3]
Cc1ccc(NC2=C(c3ccc(C(F)(F)F)cc3)C(=O)c3ccccc32)cc1C,1.24,> 100,1.69,
COc1ccc(/C=C2\SC(=Nc3ccccc3)NC2=O)cc1,0.342,> 10,0.233,
CCOc1ccc2[nH]c(=O)c(CN(CCN(CC)CC)C(=S)NCCCN(CC)CC)cc2c1,5.56,> 100,1.48,
COc1ccc(C2=C(c3ccc(OC)cc3)C3(c4ccccc4)C(=O)C2(c2ccccc2)C2C(=O)N(c4ccc(F)cc4)C(=O)C23)cc1 (stereo not given),2.24,> 100,3.35,
Nc1cc(OC(=O)c2ccccc2)nn1S(=O)(=O)c1ccc(Cl)cc1,> 1.25,> 10,0.923,
COc1ccccc1-n1c(C(C)N2CCN(C(=O)c3cc([N+](=O)[O-])cc([N+](=O)[O-])c3)C(C)C2)nc2ccccc2c1=O (stereo not given),> 0.603,> 10,0.0796,
CCOC(=O)c1sc2nc(N)c(C#N)c(-c3cccs3)c2c1N,1.13,> 100,,No fit
O=C(NC1CCN(Cc2ccccc2)CC1)c1cc(-c2ccc(F)cc2)cc(-n2cnnn2)c1,0.126,45,0.126,
CC(=NO)c1ccc2c(c1)C(C)(C)CCC2(C)C,3.51,37.1,3.9,
CC(=O)Oc1cccc(C=c2sc3ncnn3c2=O)c1,> 1.25,> 10,> 0.989,
CCOC(=O)NN=CC=NNC(=O)OCC,0.199,> 10,0.235,
CCCCCC[P+](N(CCC)CCC)(N(CCC)CCC)N(CCC)CCC,0.0704,1.16,0.0956,
C#CCN1c2ccccc2Sc2cccnc21,0.0504,36.4,0.321,
CCN(CC)CCCC(C)N=c1cc(C=Cc2ccccc2Cl)[nH]c2cc(Cl)ccc12 (stereo not given),0.0507,18.8,0.0257,
CC(C)(C)NCC(O)Cn1c2ccc(Cl)cc2c2cc(Cl)ccc21 (stereo not given),0.258,18.8,0.0563,
CCN(CC)CCNc1ncnc2c1[nH]c1ccc(Br)cc12,0.288,19.5,0.318,
CC(=O)N(C1=C(N2CCOCC2)C(=O)c2ccccc2C1=O)c1cccc(Cl)c1,0.214,4.72,0.187,
COc1ccc(C2=C(c3ccc(OC)cc3)C3(c4ccccc4)C(=O)C2(c2ccccc2)C2C(=O)N(c4ccccc4)C(=O)C23)cc1 (stereo not given),1.4,> 10,> 1.13,
Cc1cc2cc(C3C(C#N)=C(N)Oc4c3ccc3ccccc43)c(Cl)nc2cc1Cl (stereo not given),0.24,> 100,0.629,
CC(C)CC(NC(=O)OC(C)(C)C)C(=O)NC(Cc1ccccc1)C(=O)OCc1ccccc1 (stereo not drawn) (Boc-Leu-Phe-OBn; configuration not given here),> 12.5,> 100,2.95,
COc1ccc(C(=O)NC(c2ccc(C)cc2)c2cc(Cl)c3cccnc3c2O)cc1 (stereo not given),2.42,> 100,2.7,
CC1=NOC(=O)C1=Cc1cccs1,> 8.25,49.7,0.776,
CCOC(=O)c1c(NC(=O)CSc2nnc(CNC(=O)c3cccc(C)c3)n2Cc2ccccc2)sc2c1CCCC2,> 1.09,> 14,> 1.46,
Cc1ccn2c(NC(C)(C)CC(C)(C)C)c(-c3ccccc3OC(=O)c3cccs3)nc2c1,0.667,> 10,0.0393,
O=C(Cn1cc([N+](=O)[O-])nc1[N+](=O)[O-])N1CCN(c2ccc(F)cc2)CC1,1.07,33.6,0.234,

SMILES,EC50 [1] [µM],CC50 [2] [µM],"EC50 [3, 4] [µM]",EC50 [3]
Cc1ccc(C2(C)CC(C)(C)N(C(=O)Cc3ccccc3)c3ccc(C(c4ccccc4)(c4ccccc4)c4ccccc4)cc32)cc1 (stereo not given),4.79,> 100,5.68,
COc1ccc(CCNc2nc(NCCCN(C)C)ncc2C(=O)NCc2ccccc2)cc1OC,0.605,> 10,> 1.19,
COc1cc(CNc2ccc3nc(N)nc(N)c3c2)cc(OC)c1OC,> 1.03,> 10,> 1.25,
OC(CNCc1ccco1)Cn1c2ccc(Cl)cc2c2cc(Cl)ccc21 (stereo not given),5.05,> 100,0.881,
CCCCCCCCCCCCn1ccc(=N)cc1,0.321,4.99,0.188,
C(=NNc1nc2ccccc2[nH]1)c1c[nH]c2ccccc12,0.33,19.2,0.391,
Cc1ccc(S(=O)(=O)N=C(NS(=O)(=O)c2ccc(C)cc2)c2ccccc2)cc1,> 11.2,> 100,> 11.2,
CC(=O)NC1=NN(C(C)=O)C(C)(c2ccc([N+](=O)[O-])cc2)S1 (stereo not given),0.497,> 100,0.132,
CCOc1cc(C2CC(=O)NC3=C2C(=O)CC(c2cc(OC)ccc2OC)C3)ccc1O (stereo not given),0.431,> 100,0.123,
CC(=O)O[C@]1(C(C)=O)CCC2C3C=CC4=CC(=O)CC[C@]4(C)C3CC[C@@]21C (stereo not given in full),> 1.21,> 10,1.01,
COc1ccc2oc(=O)c(C(=O)N(C)c3ccc(S(N)(=O)=O)cc3)cc2c1,> 1.25,> 10,> 1.01,
Cc1ccc(-n2nnnc2SCc2nc(-c3cccc([N+](=O)[O-])c3)no2)c(C)c1,> 4.69,> 100,1.85,
CC(=O)Nc1cccc(N(C(=O)C2COc3ccccc3O2)C(C(=O)NC2CCCCC2)c2ccc(O)cc2)c1 (stereo not given),> 1.25,> 10,> 1.1,
CC(C)CCn1c(NCc2ccccc2)nc2c1c(=O)n(CC(N)=O)c(=O)n2C,> 1.25,> 10,1.71,
COc1cccc(C(=O)N(CCCC(C)Nc2cc(OC)cc3cccnc23)Cc2ccc(OC)c(OC)c2)c1 (stereo not given),1.48,> 4.01,0.513,
CCC(=O)N1CCc2cc(Br)cc(S(=O)(=O)N3CCCCC3CC)c21 (stereo not given),9.98,> 100,5.7,
OCCCCCCCCCCC[n+]1ccccc1,0.133,> 100,0.365,
O=[N+]([O-])c1ccc(Nc2nc(NN=Cc3ccccc3I)nc(Nc3ccccc3)n2)cc1,0.846,32.8,2.82,
Nc1nnc(SCC(=O)Nc2nnc(SCC(=O)Nc3nccs3)s2)s1,> 1.25,> 10,> 0.738,
CCOC(=O)c1ccc(Nc2nc(N)c3cc(OC)c(OC)cc3n2)cc1,0.482,> 100,0.2,
Cc1cccnc1NC(=O)CCCC(=O)O,> 1.07,> 10,0.788,
O=C(NCc1ccco1)c1ccc(OC2CCN(CC3CCCCC3)CC2)c(Cl)c1,0.0951,23.5,0.0236,
O=C(C1CC1)n1cc(C(=O)C(F)(F)F)c2ccccc21,1.37,> 10,> 1.22,
O=C(COc1cccc(Cl)c1)Nc1nccs1,> 12.5,> 100,> 9.29,
CCN(CC)c1nc(Nc2cc(C)ccc2C)nc(Nc2ccccc2O)n1,0.439,> 10,0.159,
